The target of the experiment is T1, coagulation factor VIII (Homo sapiens, UniProt P00451).
T1 construct: Varying amounts of MB were added to human plasma (2 ml aliquots); from tissue; host or cells: human plasma
T1 sequence (P00451 20-1332 limits assumed): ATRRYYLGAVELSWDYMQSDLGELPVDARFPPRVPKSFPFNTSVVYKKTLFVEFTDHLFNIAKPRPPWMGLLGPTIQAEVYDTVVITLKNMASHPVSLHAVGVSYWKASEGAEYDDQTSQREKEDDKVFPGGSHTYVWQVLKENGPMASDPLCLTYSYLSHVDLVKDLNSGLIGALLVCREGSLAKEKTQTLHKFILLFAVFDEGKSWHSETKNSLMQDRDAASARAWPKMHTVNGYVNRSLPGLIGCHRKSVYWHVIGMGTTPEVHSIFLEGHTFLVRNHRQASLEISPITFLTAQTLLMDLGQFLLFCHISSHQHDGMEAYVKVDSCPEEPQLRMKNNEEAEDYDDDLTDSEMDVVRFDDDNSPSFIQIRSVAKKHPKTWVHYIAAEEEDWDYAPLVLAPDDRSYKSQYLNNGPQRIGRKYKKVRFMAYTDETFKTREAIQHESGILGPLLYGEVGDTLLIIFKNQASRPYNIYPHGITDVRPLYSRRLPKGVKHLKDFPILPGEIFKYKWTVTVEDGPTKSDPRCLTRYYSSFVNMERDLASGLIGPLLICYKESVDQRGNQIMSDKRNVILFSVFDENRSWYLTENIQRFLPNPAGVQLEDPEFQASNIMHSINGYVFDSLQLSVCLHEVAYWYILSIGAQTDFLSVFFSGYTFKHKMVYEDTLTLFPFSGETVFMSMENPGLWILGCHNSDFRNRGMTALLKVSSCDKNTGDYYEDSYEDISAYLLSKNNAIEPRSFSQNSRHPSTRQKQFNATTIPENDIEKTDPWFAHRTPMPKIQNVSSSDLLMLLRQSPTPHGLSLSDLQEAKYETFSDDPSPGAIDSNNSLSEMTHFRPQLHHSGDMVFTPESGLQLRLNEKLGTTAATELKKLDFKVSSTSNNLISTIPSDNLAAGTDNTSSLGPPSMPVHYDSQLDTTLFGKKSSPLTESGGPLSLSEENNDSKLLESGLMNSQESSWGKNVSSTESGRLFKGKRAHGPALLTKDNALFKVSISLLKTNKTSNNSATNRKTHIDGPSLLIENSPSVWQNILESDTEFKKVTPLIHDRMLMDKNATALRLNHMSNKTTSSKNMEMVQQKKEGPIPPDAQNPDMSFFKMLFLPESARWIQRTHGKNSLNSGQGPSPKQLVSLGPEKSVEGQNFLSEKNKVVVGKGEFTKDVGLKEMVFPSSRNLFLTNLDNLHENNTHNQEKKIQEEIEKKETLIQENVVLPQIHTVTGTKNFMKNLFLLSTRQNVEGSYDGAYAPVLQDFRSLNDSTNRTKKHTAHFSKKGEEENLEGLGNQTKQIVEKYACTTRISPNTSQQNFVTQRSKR
T1 sequence (P00451 1668-2351 limits assumed): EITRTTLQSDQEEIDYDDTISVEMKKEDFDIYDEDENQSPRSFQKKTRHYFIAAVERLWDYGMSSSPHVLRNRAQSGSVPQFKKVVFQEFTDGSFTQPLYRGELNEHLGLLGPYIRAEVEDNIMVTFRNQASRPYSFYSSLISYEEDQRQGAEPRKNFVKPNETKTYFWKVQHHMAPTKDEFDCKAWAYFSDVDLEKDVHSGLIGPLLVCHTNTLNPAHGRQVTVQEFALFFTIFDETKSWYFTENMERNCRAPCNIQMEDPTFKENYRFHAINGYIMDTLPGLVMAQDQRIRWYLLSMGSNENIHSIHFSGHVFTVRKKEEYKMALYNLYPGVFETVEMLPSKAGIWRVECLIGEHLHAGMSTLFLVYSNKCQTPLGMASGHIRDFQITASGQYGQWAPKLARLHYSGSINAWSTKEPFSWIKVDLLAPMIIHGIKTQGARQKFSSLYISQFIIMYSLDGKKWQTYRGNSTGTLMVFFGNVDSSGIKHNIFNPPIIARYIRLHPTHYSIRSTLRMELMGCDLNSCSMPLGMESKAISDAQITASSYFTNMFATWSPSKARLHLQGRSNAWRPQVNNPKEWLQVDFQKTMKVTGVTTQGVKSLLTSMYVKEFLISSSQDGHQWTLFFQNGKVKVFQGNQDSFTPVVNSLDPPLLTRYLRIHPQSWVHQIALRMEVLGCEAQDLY
The experiment in a line: Coagulation factor activity in human plasma with MB and light exposure (Example 10). Format: biochemical.

The structures appear in SMILES notation.

`CN(C)c1ccc2nc3ccc(=[N+](C)C)cc-3sc2c1` [MB, methylene blue]: the “Factor VIII” value is listed as 0.45 E/ml (light exposure 0 h, MB 1 μM); 0.33 E/ml (light exposure 0 h, MB 2.5 μM); 0.30 E/ml (light exposure 0 h, MB 10 μM); 0.24 E/ml (light exposure 1 h, MB 1 μM); 0.24 E/ml (light exposure 1 h, MB 2.5 μM); 0.16 E/ml (light exposure 1 h, MB 10 μM). For the same compound, the “Factor VIII” value by setting is: (light exposure 2 h, MB 1 μM) 0.23 E/ml; (light exposure 2 h, MB 2.5 μM) 0.22 E/ml; (light exposure 2 h, MB 10 μM) 0.15 E/ml; (light exposure 4 h, MB 1 μM) 0.16 E/ml; (light exposure 4 h, MB 2.5 μM) 0.29 E/ml; (light exposure 4 h, MB 10 μM) 0.27 E/ml.
